These results are taken from patent US8932597B2 (priority 2008, dated 2015).

Test [1] has as its system anti-M2 human monoclonal antibody Z3G1. Type of test: binding.
Another test has as its system HuM2e antibody 23K12. The format is binding, human.

As to “366 (SLLTEVETPIRNEWWCRCNDSSD; epitope peptide) [compound 366]”, the “Signal (peptides that show specific binding to Z3G1)” value in test [1] worked out at 2406. For the same substance, the “Signal (peptides that bind to 23K21 and 8I10)” value with HuM2e antibody 23K12 came out at 1498.
As to “368 (SLLTEVETPIRNEWG; epitope peptide) [compound 368]”, the “Signal (peptides that bind to Z3G1)” value in test [1] was found to be 2429. Further, in the test on HuM2e antibody 23K12, the “Signal (peptides that bind to 23K21 and 8I10)” value was found to be 1486.
Consider “370 (SLLTEVETPIRNEWGERCNDSSD; epitope peptide) [compound 370]”, for which the “Signal (peptides that show specific binding to Z3G1)” value in test [1] turned out to be 2286. Also, the “Signal (peptides that bind to 23K21 and 8I10)” value in the test on HuM2e antibody 23K12 came to 1474.
For the substance “371 (MSLCTEVGMSLLTEV; epitope peptide) [compound 371]”, the “Signal (peptides that bind to Z3G1)” value in test [1] was 2691. In addition, the “Signal (peptides that bind to 23K21 and 8I10)” value with HuM2e antibody 23K12 turned out to be 1468.
In the case of “372 (CSLLTEVGMSCLTEV; epitope peptide) [compound 372]”, the “Signal (peptides that bind to Z3G1)” value in test [1] is 2554. In addition, in the test on HuM2e antibody 23K12, the “Signal (peptides that bind to 23K21 and 8I10)” value turned out to be 1466.
As for “373 (CSLLTECGMSLLTEV; epitope peptide) [compound 373]”, the “Signal (peptides that bind to Z3G1)” value in test [1] stood at 1235. Further, the “Signal (peptides that bind to 23K21 and 8I10)” value in the test on HuM2e antibody 23K12 is 1458.
As for “375 (SLLTEVETPIRNEWGCRVNDSSD; epitope peptide) [compound 375]”, the “Signal (peptides that show specific binding to Z3G1)” value in test [1] is given as 2316. The “Signal (peptides that bind to 23K21 and 8I10)” value in the test on HuM2e antibody 23K12 was found to be 1446.
Consider “377 (SLKTEVETPIRNEWGCRCNDSSD; epitope peptide) [compound 377]”, for which the “Signal (peptides that show specific binding to Z3G1)” value in test [1] stood at 1453. In the test with HuM2e antibody 23K12, the “Signal (peptides that bind to 23K21 and 8I10)” value came out at 1434.
Consider “379 (SLCTEVGCSCLCEV; epitope peptide) [compound 379]”, for which, in test [1], the “Signal (peptides that show specific binding to Z3G1)” value is on record as 1500. In addition, the “Signal (peptides that bind to 23K21 and 8I10)” value with HuM2e antibody 23K12 turned out to be 1421.
The like results for “380 (SLLTEVETPIRNTWGCRCNDSSD; epitope peptide) [compound 380]” were, in that order, 2314 and 1409.
The like results for “381 (SLLQEVETPIRNEWGCRCNDSSD; epitope peptide) [compound 381]” were, in that order, 2432 and 1399.
In the case of “383 (CSLLTEVGCSLLTEC; epitope peptide) [compound 383]”, in test [1], the “Signal (peptides that bind to Z3G1)” value stood at 2486. For the same substance, the “Signal (peptides that bind to 23K21 and 8I10)” value in the test with HuM2e antibody 23K12 stood at 1380.
For the substance “384 (SLLTEVETPIRNEYGCRCNDSSD; epitope peptide) [compound 384]”, the “Signal (peptides that show specific binding to Z3G1)” value in test [1] stood at 2426. In the test on HuM2e antibody 23K12, the “Signal (peptides that bind to 23K21 and 8I10)” value turned out to be 1377.
Consider “385 (CSLLTEVGCLCTCV; epitope peptide) [compound 385]”, for which, in test [1], the “Signal (peptides that show specific binding to Z3G1)” value is given as 2474. Further, the “Signal (peptides that bind to 23K21 and 8I10)” value in the test on HuM2e antibody 23K12 worked out at 1375.
Regarding “386 (SLLTEVETPIRNEVGCRCNDSSD; epitope peptide) [compound 386]”, in test [1], the “Signal (peptides that show specific binding to Z3G1)” value is 2411. In the test on HuM2e antibody 23K12, the “Signal (peptides that bind to 23K21 and 8I10)” value is reported as 1371.
On to “387 (SLLTEVETPIRTEWGCRCNDSSD; epitope peptide) [compound 387]”, for which the “Signal (peptides that show specific binding to Z3G1)” value in test [1] is reported as 2360. Further, in the test with HuM2e antibody 23K12, the “Signal (peptides that bind to 23K21 and 8I10)” value was found to be 1365.
With “388 (CSLLTEVGCLLTEV; epitope peptide) [compound 388]”, in test [1], the “Signal (peptides that show specific binding to Z3G1)” value was 2427. Besides, in the test with HuM2e antibody 23K12, the “Signal (peptides that bind to 23K21 and 8I10)” value is on record as 1351.
The like results for “389 (SLLTEVETPYRNEWGCRCNDSSD; epitope peptide) [compound 389]” were, in that order, 2303 and 1350.
With “390 (CLLTEVGSLLTEV; epitope peptide) [compound 390]”, in test [1], the “Signal (peptides that show specific binding to Z3G1)” value was 2494. For the same substance, in the test on HuM2e antibody 23K12, the “Signal (peptides that bind to 23K21 and 8I10)” value was found to be 1349.
Consider “393 (SLLTEVETPIRNEWGCRCNLSSD; epitope peptide) [compound 393]”, for which the “Signal (peptides that bind to Z3G1)” value in test [1] worked out at 2634. Moreover, the “Signal (peptides that bind to 23K21 and 8I10)” value in the test with HuM2e antibody 23K12 is reported as 1334.
As to “394 (SLLTEVETPIRNEWGCRCNMSSD; epitope peptide) [compound 394]”, the “Signal (peptides that bind to Z3G1)” value in test [1] came out at 2574. The “Signal (peptides that bind to 23K21 and 8I10)” value in the test on HuM2e antibody 23K12 is listed as 1133.
On the same counts, the results for “395 (SLLTEVETPIRNEWGCRCNNSSD; epitope peptide) [compound 395]” are 2502 and 926.
As for “396 (SLLTEVETPIRNEWGCRCNPSSD; epitope peptide) [compound 396]”, in test [1], the “Signal (peptides that bind to Z3G1)” value worked out at 2445. Further, the “Signal (peptides that bind to 23K21 and 8I10)” value in the test with HuM2e antibody 23K12 stood at 849.
Turning to “397 (SLLTEVETPIRNEWGCRCNQSSD; epitope peptide) [compound 397]”, the “Signal (peptides that bind to Z3G1)” value in test [1] was 2376. Also, the “Signal (peptides that bind to 23K21 and 8I10)” value in the test with HuM2e antibody 23K12 is recorded as 842.
On the same counts, the results for “398 (SLLTEVETPIRNEWGCRCNRSSD; epitope peptide) [compound 398]” are 2514 and 890.
The like results for “399 (SLLTEVETPIRNEWGCRCNTSSD; epitope peptide) [compound 399]” were, in that order, 2483 and 795.
Regarding “400 (SLLTEVETPIRNEWGCRCNVSSD; epitope peptide) [compound 400]”, the “Signal (peptides that bind to Z3G1)” value in test [1] came out at 2476. In addition, the “Signal (peptides that bind to 23K21 and 8I10)” value in the test with HuM2e antibody 23K12 amounted to 865.
On to “401 (SLLTEVETPIRNEWGCRCNWSSD; epitope peptide) [compound 401]”, for which the “Signal (peptides that bind to Z3G1)” value in test [1] came out at 2556. Moreover, the “Signal (peptides that bind to 23K21 and 8I10)” value in the test with HuM2e antibody 23K12 amounted to 999.
On to “403 (SLLTEVETPIRNEWGCRCNDCSD; epitope peptide) [compound 403]”, for which the “Signal (peptides that bind to Z3G1)” value in test [1] amounted to 2318. The “Signal (peptides that bind to 23K21 and 8I10)” value in the test on HuM2e antibody 23K12 was 772.
In the case of “406 (SLLTEVETPIRNEWGCRCNDFSD; epitope peptide) [compound 406]”, in test [1], the “Signal (peptides that bind to Z3G1)” value is given as 2395. For the same substance, the “Signal (peptides that bind to 23K21 and 8I10)” value in the test with HuM2e antibody 23K12 is listed as 788.
Regarding “407 (SLLTEVETPIRNEWGCRCNDHSD; epitope peptide) [compound 407]”, the “Signal (peptides that bind to Z3G1)” value in test [1] worked out at 2537. Moreover, the “Signal (peptides that bind to 23K21 and 8I10)” value in the test with HuM2e antibody 23K12 was 1200.
On the same counts, the results for “408 (SLLTEVETPIRNEWGCRCNDISD; epitope peptide) [compound 408]” are 2527 and 962.
Regarding “409 (SLLTEVETPIRNEWGCRCNDKSD; epitope peptide) [compound 409]”, in test [1], the “Signal (peptides that bind to Z3G1)” value was 2484. In the test on HuM2e antibody 23K12, the “Signal (peptides that bind to 23K21 and 8I10)” value is recorded as 898.
Regarding “410 (SLLTEVETPIRNEWGCRCNDLSD; epitope peptide) [compound 410]”, the “Signal (peptides that bind to Z3G1)” value in test [1] worked out at 2494. The “Signal (peptides that bind to 23K21 and 8I10)” value in the test on HuM2e antibody 23K12 worked out at 769.
Consider “411 (SLLTEVETPIRNEWGCRCNDMSD; epitope peptide) [compound 411]”, for which the “Signal (peptides that bind to Z3G1)” value in test [1] was 2405. In addition, the “Signal (peptides that bind to 23K21 and 8I10)” value in the test with HuM2e antibody 23K12 turned out to be 744.
With “412 (SLLTEVETPIRNEWGCRCNDNSD; epitope peptide) [compound 412]”, in test [1], the “Signal (peptides that bind to Z3G1)” value was 2389. The “Signal (peptides that bind to 23K21 and 8I10)” value with HuM2e antibody 23K12 is 708.
On to “413 (SLLTEVETPIRNEWGCRCNDPSD; epitope peptide) [compound 413]”, for which, in test [1], the “Signal (peptides that bind to Z3G1)” value is given as 2450. Also, in the test on HuM2e antibody 23K12, the “Signal (peptides that bind to 23K21 and 8I10)” value was 797.
As for “414 (SLLTEVETPIRNEWGCRCNDQSD; epitope peptide) [compound 414]”, the “Signal (peptides that bind to Z3G1)” value in test [1] turned out to be 2349. For the same substance, the “Signal (peptides that bind to 23K21 and 8I10)” value in the test with HuM2e antibody 23K12 is recorded as 739.
Consider “415 (SLLTEVETPIRNEWGCRCNDRSD; epitope peptide) [compound 415]”, for which, in test [1], the “Signal (peptides that bind to Z3G1)” value worked out at 2502. For the same substance, the “Signal (peptides that bind to 23K21 and 8I10)” value in the test on HuM2e antibody 23K12 was 860.
The like results for “416 (SLLTEVETPIRNEWGCRCNDTSD; epitope peptide) [compound 416]” were, in that order, 2394 and 794.
With “417 (SLLTEVETPIRNEWGCRCNDVSD; epitope peptide) [compound 417]”, the “Signal (peptides that bind to Z3G1)” value in test [1] was determined as 2389. Further, the “Signal (peptides that bind to 23K21 and 8I10)” value with HuM2e antibody 23K12 turned out to be 772.
Turning to “418 (SLLTEVETPIRNEWGCRCNDWSD; epitope peptide) [compound 418]”, the “Signal (peptides that bind to Z3G1)” value in test [1] turned out to be 2491. For the same substance, the “Signal (peptides that bind to 23K21 and 8I10)” value with HuM2e antibody 23K12 turned out to be 929.
As for “420 (SLLTEVETPIRNEWGCRCNDSCD; epitope peptide) [compound 420]”, the “Signal (peptides that bind to Z3G1)” value in test [1] is on record as 2269. For the same substance, the “Signal (peptides that bind to 23K21 and 8I10)” value with HuM2e antibody 23K12 came to 725.
Take “421 (SLLTEVETPIRNEWGCRCNDSED; epitope peptide) [compound 421]”: the “Signal (peptides that bind to Z3G1)” value in test [1] came to 2527. Moreover, in the test on HuM2e antibody 23K12, the “Signal (peptides that bind to 23K21 and 8I10)” value came to 944.
In the case of “422 (SLLTEVETPIRNEWGCRCNDSFD; epitope peptide) [compound 422]”, the “Signal (peptides that bind to Z3G1)” value in test [1] was 2492. Also, the “Signal (peptides that bind to 23K21 and 8I10)” value in the test on HuM2e antibody 23K12 stood at 947.
The like results for “423 (SLLTEVETPIRNEWGCRCNDSHD; epitope peptide) [compound 423]” were, in that order, 2353 and 782.
As for “425 (SLLTEVETPIRNEWGCRCNDSKD; epitope peptide) [compound 425]”, the “Signal (peptides that bind to Z3G1)” value in test [1] amounted to 2361. Besides, in the test with HuM2e antibody 23K12, the “Signal (peptides that bind to 23K21 and 8I10)” value is given as 770.
For the substance “426 (SLLTEVETPIRNEWGCRCNDSLD; epitope peptide) [compound 426]”, the “Signal (peptides that bind to Z3G1)” value in test [1] was 2400. Besides, in the test on HuM2e antibody 23K12, the “Signal (peptides that bind to 23K21 and 8I10)” value amounted to 779.
“428 (SLLTEVETPIRNEWGCRCNDSPD; epitope peptide) [compound 428]”: the “Signal (peptides that bind to Z3G1)” value in test [1] is on record as 2344. In the test on HuM2e antibody 23K12, the “Signal (peptides that bind to 23K21 and 8I10)” value is 772.
Regarding “430 (SLLTEVETPIRNEWGCRCNDSRD; epitope peptide) [compound 430]”, the “Signal (peptides that bind to Z3G1)” value in test [1] is given as 2373. In addition, the “Signal (peptides that bind to 23K21 and 8I10)” value with HuM2e antibody 23K12 was determined as 833.
